Results reported in patent publication US20240043427A1 (Gilead Sciences, Inc., priority 2020, published 2024).

What was measured:
CD73 [1] = molecular target: T1, CD73 (Homo sapiens (Human), UniProt P21589); assay type: biochemical; conditions: 1 mM NaH2PO4 in enzyme buffer, CD73 0.3 nM, AMP 15 uM
CD73 [2] = molecular target: T1, CD73; assay: MDA-MB-231 Cell Based CD73 Activity Assay (DMEM); conditions: MDA-MB-231-GFP cells, DMEM medium with 10% human plasma, 200 uM AMP

T1 sequence (P21589 27-574): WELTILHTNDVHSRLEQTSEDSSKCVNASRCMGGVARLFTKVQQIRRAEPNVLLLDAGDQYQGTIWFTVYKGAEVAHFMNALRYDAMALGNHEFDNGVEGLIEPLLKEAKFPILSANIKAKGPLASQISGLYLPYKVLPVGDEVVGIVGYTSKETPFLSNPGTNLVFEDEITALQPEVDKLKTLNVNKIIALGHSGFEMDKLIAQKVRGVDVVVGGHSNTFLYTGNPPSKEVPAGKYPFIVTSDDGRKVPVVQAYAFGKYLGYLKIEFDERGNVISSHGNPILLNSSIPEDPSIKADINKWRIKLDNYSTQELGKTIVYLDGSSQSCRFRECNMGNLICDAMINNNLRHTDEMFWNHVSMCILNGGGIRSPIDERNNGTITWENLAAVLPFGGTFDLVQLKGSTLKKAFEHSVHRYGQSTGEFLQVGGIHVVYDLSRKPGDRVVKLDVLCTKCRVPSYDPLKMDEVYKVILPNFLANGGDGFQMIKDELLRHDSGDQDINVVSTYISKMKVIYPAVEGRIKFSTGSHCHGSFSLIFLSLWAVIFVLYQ

O=c1[nH]cc(-c2cc(N3CC(F)(F)C4(CN(CC(F)F)C4)C3)c3nccn3n2)c(=O)[nH]1 [Example 507, 5-(8-(2-(2,2-difluoroethyl)-8,8-difluoro-2,6-diazaspiro[3.4]octan-6-yl)imidazo[1,2-b]pyridazin-6-yl)pyrimidine-2,4(1H,3H)-dione]
IC50 (CD73 [1]): 9.83 nM | EC50 (CD73 [2]): 19.7 nM

O=c1[nH]cc(-c2cc(N3CCC(c4ccc(C(F)(F)F)cc4)C3)c3nccn3n2)c(=O)[nH]1 (stereo not drawn) [Example 248, 5-(8-(3-(4-(trifluoromethyl)phenyl)pyrrolidin-1-yl)imidazo[1,2-b]pyridazin-6-yl)pyrimidine-2,4(1H,3H)-dione]
IC50 (CD73 [1]): 15.1 nM | EC50 (CD73 [2]): 36.3 nM

O=c1[nH]cc(-c2cc(N3CC[C@H](OC(F)F)C3)c3nccn3n2)c(=O)[nH]1 [Example 348, (S)-5-(8-(3-(difluoromethoxy)pyrrolidin-1-yl)imidazo[1,2-b]pyridazin-6-yl)pyrimidine-2,4(1H,3H)-dione]
IC50 (CD73 [1]): 54 nM | EC50 (CD73 [2]): 121 nM

O=c1[nH]cc(-c2cc(NCCc3cccc(Cl)c3)c3nccn3n2)c(=O)[nH]1 [Example 490, 5-(8-((3-chlorophenethyl)amino)imidazo[1,2-b]pyridazin-6-yl)pyrimidine-2,4(1H,3H)-dione]
IC50 (CD73 [1]): 95 nM | EC50 (CD73 [2]): 463 nM

N#Cc1ccc([C@H]2C[C@@H]2c2cc(-c3c[nH]c(=O)[nH]c3=O)nn3c(F)cnc23)cn1 (racemic) [Example 375, 5-((1S,2S)-2-(6-(2,4-dioxo-1,2,3,4-tetrahydropyrimidin-5-yl)-3-fluoroimidazo[1,2-b]pyridazin-8-yl)cyclopropyl)picolinonitrile]
IC50 (CD73 [1]): 2.83 nM | EC50 (CD73 [2]): 11.2 nM

O=C(OCC(F)(F)F)O[C@H]1CN(c2cc(-c3c[nH]c(=O)[nH]c3=O)nn3ccnc23)CC1(F)F [Example 541, (S)-1-(6-(2,4-dioxo-1,2,3,4-tetrahydropyrimidin-5-yl)imidazo[1,2-b]pyridazin-8-yl)-4,4-difluoropyrrolidin-3-yl (2,2,2-trifluoroethyl) carbonate]
IC50 (CD73 [1]): 0.55 nM | EC50 (CD73 [2]): 36.3 nM

O=c1[nH]cc(-c2cc(N3CC(Oc4ccc(C(F)F)cn4)C(F)(F)C3)c3nccn3n2)c(=O)[nH]1 (stereo not drawn) [Example 232, 5-(8-(4-((5-(difluoromethyl)pyridin-2-yl)oxy)-3,3-difluoropyrrolidin-1-yl)imidazo[1,2-b]pyridazin-6-yl)pyrimidine-2,4(1H,3H)-dione]
IC50 (CD73 [1]): 2.15 nM | EC50 (CD73 [2]): 6.18 nM

O=c1[nH]cc(-c2cc([C@H]3C[C@@H]3c3ccc(Cl)cc3)c3nccn3n2)c(=O)[nH]1 [Example 633, 5-(8-((1S,2S)-2-(4-chlorophenyl)cyclopropyl)imidazo[1,2-b]pyridazin-6-yl)pyrimidine-2,4(1H,3H)-dione]
IC50 (CD73 [1]): 1.55 nM | EC50 (CD73 [2]): 7.08 nM

CC(C)(O)C#Cc1cc(-c2c[nH]c(=O)[nH]c2=O)nn2ccnc12 [Example 685, 5-(8-(3-hydroxy-3-methylbut-1-yn-1-yl)imidazo[1,2-b]pyridazin-6-yl)pyrimidine-2,4(1H,3H)-dione]
IC50 (CD73 [1]): > 250 nM | EC50 (CD73 [2]): 551 nM

CC1CCN(c2cc(-c3c[nH]c(=O)[nH]c3=O)nn3ccnc23)CCC1(F)F (stereo not drawn) [Example 484, 5-(8-(4,4-difluoro-5-methylazepan-1-yl)imidazo[1,2-b]pyridazin-6-yl)pyrimidine-2,4(1H,3H)-dione]
IC50 (CD73 [1]): 68.7 nM | EC50 (CD73 [2]): 180 nM

O=c1[nH]cc(-c2cc([C@H]3C[C@@H]3c3ccc(OC(F)F)nc3)c3nccn3n2)c(=O)[nH]1 [Example 140, 5-(8-((1S,2S)-2-(6-(difluoromethoxy)pyridin-3-yl)cyclopropyl)imidazo[1,2-b]pyridazin-6-yl)pyrimidine-2,4(1H,3H)-dione]
IC50 (CD73 [1]): 1.68 nM | EC50 (CD73 [2]): 5.25 nM

O=c1[nH]cc(-c2cc(N3CC[C@@H](OC(F)F)C3)c3nccn3n2)c(=O)[nH]1 [Example 347, (R)-5-(8-(3-(difluoromethoxy)pyrrolidin-1-yl)imidazo[1,2-b]pyridazin-6-yl)pyrimidine-2,4(1H,3H)-dione]
IC50 (CD73 [1]): 4.39 nM | EC50 (CD73 [2]): 11.9 nM

O=c1[nH]cc(-c2cc(N3CCC4(CC4)C(F)(F)C3)c3nccn3n2)c(=O)[nH]1 [Example 260, 5-(8-(4,4-difluoro-6-azaspiro[2.5]octan-6-yl)imidazo[1,2-b]pyridazin-6-yl)pyrimidine-2,4(1H,3H)-dione]
IC50 (CD73 [1]): > 250 nM | EC50 (CD73 [2]): 963 nM

O=C(NC1CN(c2cc(-c3c[nH]c(=O)[nH]c3=O)nn3ccnc23)CC1(F)F)c1ccccc1 (stereo not drawn) [Example 209, N-[1-[6-(2,4-dioxo-1H-pyrimidin-5-yl)imidazo[1,2-b]pyridazin-8-yl]-4,4-difluoro-pyrrolidin-3-yl]benzamide]
IC50 (CD73 [1]): 2.8 nM | EC50 (CD73 [2]): 24.2 nM

O=c1[nH]cc(-c2cc([C@@H]3C[C@H]3c3ccc(Cl)cc3)c3nccn3n2)c(=O)[nH]1 [Example 634, 5-(8-((1R,2R)-2-(4-chlorophenyl)cyclopropyl)imidazo[1,2-b]pyridazin-6-yl)pyrimidine-2,4(1H,3H)-dione]
IC50 (CD73 [1]): 5.19 nM | EC50 (CD73 [2]): 39 nM

CC1(C#N)CCN(c2cc(-c3c[nH]c(=O)[nH]c3=O)nn3ccnc23)C1 (stereo not drawn) [Example 649, 1-(6-(2,4-dioxo-1,2,3,4-tetrahydropyrimidin-5-yl)imidazo[1,2-b]pyridazin-8-yl)-3-methylpyrrolidine-3-carbonitrile]
IC50 (CD73 [1]): 11.7 nM | EC50 (CD73 [2]): 21.7 nM

O=c1[nH]cc(-c2cc([C@H]3C[C@@H]3c3cc4c(cnn4CC(F)(F)F)cc3F)c3nccn3n2)c(=O)[nH]1 [Example 595, 5-(8-((1S,2S)-2-(5-fluoro-1-(2,2,2-trifluoroethyl)-1H-indazol-6-yl)cyclopropyl)imidazo[1,2-b]pyridazin-6-yl)pyrimidine-2,4(1H,3H)-dione]
IC50 (CD73 [1]): 1.27 nM | EC50 (CD73 [2]): 0.52 nM

O=C(Nc1ccc(F)cc1F)OCC(F)(F)COc1cc(-c2c[nH]c(=O)[nH]c2=O)nn2ccnc12 [Example 238, 3-((6-(2,4-dioxo-1,2,3,4-tetrahydropyrimidin-5-yl)imidazo[1,2-b]pyridazin-8-yl)oxy)-2,2-difluoropropyl (2,4-difluorophenyl)carbamate]
IC50 (CD73 [1]): 0.36 nM | EC50 (CD73 [2]): 5.18 nM

CC(C)COc1cc(-c2c[nH]c(=O)[nH]c2=O)nn2ccnc12 [Example 678, 5-(8-isobutoxyimidazo[1,2-b]pyridazin-6-yl)pyrimidine-2,4(1H,3H)-dione]
IC50 (CD73 [1]): 23.9 nM | EC50 (CD73 [2]): 38.8 nM

O=c1[nH]cc(-c2cc(N3CC(C4CC4)C3)c3nccn3n2)c(=O)[nH]1 [Example 404, 5-(8-(3-cyclopropylazetidin-1-yl)imidazo[1,2-b]pyridazin-6-yl)pyrimidine-2,4(1H,3H)-dione]
IC50 (CD73 [1]): 22.9 nM | EC50 (CD73 [2]): 77.6 nM

CC1(C)C(=O)N(CC(F)(F)F)c2cc([C@H]3C[C@@H]3c3cc(-c4c[nH]c(=O)[nH]c4=O)nn4ccnc34)cnc21 [Example 698, 5-(8-((1S,2S)-2-(3,3-dimethyl-2-oxo-1-(2,2,2-trifluoroethyl)-2,3-dihydro-1H-pyrrolo[3,2-b]pyridin-6-yl)cyclopropyl)imidazo[1,2-b]pyridazin-6-yl)pyrimidine-2,4(1H,3H)-dione]
IC50 (CD73 [1]): 3.84 nM | EC50 (CD73 [2]): 0.81 nM

O=c1[nH]cc(-c2cc(N3CC(F)(c4ccccc4)C3)c3nccn3n2)c(=O)[nH]1 [Example 259, 5-(8-(3-fluoro-3-phenylazetidin-1-yl)imidazo[1,2-b]pyridazin-6-yl)pyrimidine-2,4(1H,3H)-dione]
IC50 (CD73 [1]): 14.7 nM | EC50 (CD73 [2]): 80.7 nM

O=c1[nH]cc(-c2cc(N3CCC(Oc4ccccc4)C3)c3nccn3n2)c(=O)[nH]1 (stereo not drawn) [Example 242, 5-(8-(3-phenoxypyrrolidin-1-yl)imidazo[1,2-b]pyridazin-6-yl)pyrimidine-2,4(1H,3H)-dione]
IC50 (CD73 [1]): 0.22 nM | EC50 (CD73 [2]): 2.43 nM

COc1ncc(-c2cc(N3CC(OCC(F)(F)F)C(F)(F)C3)c3nccn3n2)c(OC)n1 (stereo not drawn) [Example 203, 8-[3,3-difluoro-4-(2,2,2-trifluoroethoxy)pyrrolidin-1-yl]-6-(2,4-dimethoxypyrimidin-5-yl)imidazo[1,2-b]pyridazine]
IC50 (CD73 [1]): 3.03 nM | EC50 (CD73 [2]): 10.3 nM

CC(n1ncc2ccc([C@H]3C[C@@H]3c3cc(-c4c[nH]c(=O)[nH]c4=O)nn4ccnc34)cc21)C(F)(F)F (stereo partly drawn) [Example 617, 5-(8-((1S,2S)-2-(1-(1,1,1-trifluoropropan-2-yl)-1H-indazol-6-yl)cyclopropyl)imidazo[1,2-b]pyridazin-6-yl)pyrimidine-2,4(1H,3H)-dione]
IC50 (CD73 [1]): 0.78 nM | EC50 (CD73 [2]): 0.22 nM

O=C(NC1CN(c2cc(-c3c[nH]c(=O)[nH]c3=O)nn3ccnc23)CC1(F)F)OCC1CC1 (stereo not drawn) [Example 207, cyclopropylmethyl N-[1-[6-(2,4-dioxo-1H-pyrimidin-5-yl)imidazo[1,2-b]pyridazin-8-yl]-4,4-difluoro-pyrrolidin-3-yl]carbamate]
IC50 (CD73 [1]): 6.05 nM | EC50 (CD73 [2]): 20.3 nM

O=c1[nH]cc(-c2cc(N3CC(F)(F)C4(CNC4)C3)c3nccn3n2)c(=O)[nH]1 [Example 501, 5-(8-(8,8-difluoro-2,6-diazaspiro[3.4]octan-6-yl)imidazo[1,2-b]pyridazin-6-yl)pyrimidine-2,4(1H,3H)-dione]
IC50 (CD73 [1]): 20.9 nM | EC50 (CD73 [2]): 108 nM

O=c1[nH]cc(-c2cc(N3C[C@H](OC(F)F)C(F)(F)C3)c3nccn3n2)c(=O)[nH]1 [Example 201, 5-[8-[(4S)-4-(difluoromethoxy)-3,3-difluoro-pyrrolidin-1-yl]imidazo[1,2-b]pyridazin-6-yl]-1H-pyrimidine-2,4-dione]
IC50 (CD73 [1]): 1.11 nM | EC50 (CD73 [2]): 6.39 nM

O=c1[nH]cc(-c2cc(N3CC(C45CC(C4)C5)C3)c3nccn3n2)c(=O)[nH]1 [Example 446, 5-(8-(3-(bicyclo[1.1.1]pentan-1-yl)azetidin-1-yl)imidazo[1,2-b]pyridazin-6-yl)pyrimidine-2,4(1H,3H)-dione]
IC50 (CD73 [1]): 91 nM | EC50 (CD73 [2]): 1100 nM

N#Cc1cc([C@H]2C[C@@H]2c2cc(-c3c[nH]c(=O)[nH]c3=O)nn3ccnc23)ccc1Cl [Example 553, 2-chloro-5-((1S,2S)-2-(6-(2,4-dioxo-1,2,3,4-tetrahydropyrimidin-5-yl)imidazo[1,2-b]pyridazin-8-yl)cyclopropyl)benzonitrile]
IC50 (CD73 [1]): 1.39 nM | EC50 (CD73 [2]): 6.89 nM
